Experimental data published in patent publication US20070197632A1, “Aminocyclohexyl ether compounds and uses thereof” (Cardiome Pharma Corp, priority 2003, published 2007).

Legend:
conscious rats = details: rat, in vivo, iv
[1] = system: sustained AF maintained during continuous vagal nerve stimulation; assay: Canine vagal-AF model; format: in vivo, dog; details: anesthetized dogs, IV
Description: St.-Georges et al., 1997). Dogs are ventilated mechanically with room air supplemented with oxygen via an endotracheal tube at 20 to 25 breaths/minute with a tidal volume obtained from a nomogram. […] Catheters are inserted into the femoral artery for blood pressure recording and blood gas measurement, and into both femoral veins for drug administration and venous sampling. […] Body temperature is maintained at 37-40° C. with a heating blanket. The heart is exposed via a medial thoracotomy and a pericardial cradle is created. […] Drug effects to terminate sustained AF maintained during continuous vagal nerve stimulation are assessed. […] The vagal stimulation voltage is adjusted under control conditions, and then readjusted after each treatment to maintain the same bradycardic effect. […] Diastolic threshold and ERP are determined in duplicate and averaged to give a single value. […] The interval between the stimulus artefact and the peak of the local electrogram is measured as an index of conduction velocity. […] The stimulus voltage-heart rate relationship for vagal nerve stimulation is determined under control conditions in most experiments. […] After the termination of AF, the diastolic threshold and ERP of the atrium and ventricle are determined. […] Group data are expressed as the mean±SEM. […]

Row | Compound | convulsion dose (conscious rats) [µmol/kg/min] | Median dose required for termination of AF [1] [µmol/kg] | Mean dose required for termination of AF ([1]; mean±SEM) [µmol/kg]
1 | COc1ccc(CCO[C@H]2CCCC[C@@H]2N2CC[C@H](O)C2)cc1OC.Cl [Compound 7, (1S,2S)-2-[(3S)-Hydroxypyrrolidinyl]-1-(3,4-dimethoxyphenethoxy)-cyclohexane monohydrochloride] | 64 | – | –
2 | O=C(NCC1CCCCN1)c1cc(OCC(F)(F)F)ccc1OCC(F)(F)F (stereo not drawn) [Flecainide] | – | 2.5 | 4 ± 2
